According to PMC5716189, “Characterization of the APLF FHA–XRCC1 phosphopeptide interaction and its structural and functional implications” (Nucleic Acids Research, 2017):
One block for each compound: values may come before it. Square brackets hold non-standard residues; d marks the D form. Peptide text beside a SMILES is read from it. * marks the point of attachment. FITC = O=C1OC2(c3ccc(O)cc3Oc3cc(O)ccc32)c2ccc(NC(=S)*)cc21; pT = C[C@@H](OP(=O)(O)O)[C@H](N)C(=O)O; pS = N[C@@H](COP(=O)(O)O)C(=O)O

How the values were obtained:
APLF FHA domain [1] = target: T1, APLF FHA domain (Homo sapiens, UniProt Q8IW19); assay: Fluorescence polarization peptide binding assay; conditions: FP; for Kd: room temperature
T1 construct: His6 (N, cleaved yes); TEV cleavage site (N, cleaved yes); made in house; host or cells: Escherichia coli Rosetta2 (DE3)
T1 sequence (Q8IW19 1-108 limits assumed): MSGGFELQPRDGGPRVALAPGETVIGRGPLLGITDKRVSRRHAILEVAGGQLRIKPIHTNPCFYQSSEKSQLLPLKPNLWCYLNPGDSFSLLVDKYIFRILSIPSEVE
Procedure: Apparent dissociation constants for peptide-protein interactions were determined based on fluorescence polarization measurements of fluorescein-labeled peptides on a POLARstar Omega fluorescence polarization (FP) reader (BMG Labtech) using an excitation wavelength of 485 nm and the emission measured at 520 nm at room temperature. XRCC1 phosphopeptides used in FP studies (Table 1) were labeled with an N-terminal FITC-Gly-Gly fluorophore. Measurements were made as a function of pH in the range from pH 7.4 to 5.5 in FP buffer consisting of 25 mM HEPES, 25 mM MES, 150 mM NaCl, 1 mM EDTA, 2 mM DTT and 0.05% Tween 20. Samples of the APLF FHA domain in FP buffer were prepared at pH 7.4, 7.0, 6.5, 6.0 and 5.5. Samples corresponding to each titration step were put in a 96-well black flat-bottomed plate and the fluorescence emission polarization was determined. The FP results were normalized to a 0–1 scale after curve-fitting for the direct comparison of results from different conditions. Data for the interaction of a phosphopeptide (L) with APLF FHA (M) were fit to a single-site binding equation as described previously ([39]). All phosphopeptides used were synthesized by either GenScript or Thermo Fisher.

APLF FHA domain [2] = target: T1, APLF FHA domain; assay: 1H,15N-HSQC NMR phosphopeptide titration; format: binding; conditions: pH 7.4, 0.1 mM U-[15N] APLF FHA, 25 mM HEPES, 25 mM MES, 150 mM NaCl, 1 mM EDTA, 35°C
Procedure: (§1) All NMR experiments were performed at 35°C on a Varian INOVA 500 MHz spectrometer equipped with a triple-resonance, pulsed-field gradient cryo-probe, with the exception of the ^31P experiments, which were collected on an Agilent/Varian DD2 600 MHz spectrometer equipped with a heteronuclear broadband probe. The backbone chemical shift assignments were made from 3D HNCACB, CBCA(CO)NH, HNCA, HN(CO)CA, HNCO and HN(CA)CO experiments that were obtained using Agilent BioPack pulse sequences (Agilent). The 3D experiments were acquired with non-uniform sampling to speed up the data acquisition ([36],[37]). Since several of the amide resonances were broadened as a result of the intermediate amide proton exchange dynamics at pH 7.4, a low pH buffer, 25 mM sodium citrate, 50 mM NaCl, and 1 mM EDTA, pH 5.5, was used for the amide backbone assignments. For phosphopeptide titration experiments, 2D ^1H,^15N-HSQC spectra were acquired on a sample containing 0.1 mM U-[^15N] APLF-FHA in 25 mM HEPES, 25 mM MES, 150 mM NaCl, 1 mM EDTA, pH 7.4 as a function of phosphopeptide concentration. The interaction of sodium phosphate, sodium sulfate, and sodium ethylsulfate with U-[^15N] APLF FHA sample was also studied by monitoring the ^1H,^15N-HSQC spectrum of the labeled protein as a function of the anion concentration. The volume of peptide or anion added never exceeded more than 10% of the total volume.

[3] = free amino acid; cited from earlier work
From the text: This selectivity implies that most phosphopeptides formed by CK2-dependent phosphorylation contain multiple anionic residues and are often multiply phosphorylated.

APLF FHA domain [4] = target: T1, APLF FHA domain; assay: 1H,15N-HSQC NMR titration with inorganic anions; format: binding; conditions: for amide shift changes of U-[15N] APLF FHA produced by the anion: 0-150 mM titrant, 0.1 mM protein; for Kd: amide shifts of the more strongly shifted resonances, 25 mM HEPES, 25 mM MES, 150 mM NaCl, 1 mM EDTA, 1:1 binding, read-out: phosphate Kd
Procedure: as §1

APLF FHA domain [5] = target: T1, APLF FHA domain; assay: NMR lineshape simulation of amide exchange data; format: binding; conditions: two-site exchange lineshape simulation; pH 7.4; 35°C
Procedure: as §1, with “APLF-FHA in 25 mM HEPES, 25 mM MES, 150 mM NaCl, 1 mM EDTA, pH 7.4 as a function of phosphopeptide concentration. The interaction of sodium phosphate, sodium sulfate, and sodium ethylsulfate with U-[^15N] APLF FHA sample was also studied by monitoring the ^1H,^15N-HSQC spectrum of the labeled protein as a function of the anion concentration. The volume of peptide or anion added never exceeded more than 10% of the total volume.” left out
The lineshape simulations utilized a Mathematica algorithm (Wolfram Research, Champaign, IL, USA) based on the two-site exchange formalism given by Rogers and Woodbrey ([40]). The fraction of bound ligand, pB, is initially calculated using the above relation, the FHA domain and peptide concentrations and an assumed Kd value which is then varied to optimize the agreement with the experimental spectra. […]

[6] = 31P NMR pH titration of free phosphopeptides (pK determination); format: physicochemical; conditions: pH 8.5 to 4.0, 0.5 mM peptide, 50 mM sodium acetate, 50 mM sodium cacodylate, 1 mM EDTA, TMP reference, Henderson-Hasselbalch fit
Procedure: 1D ^31P-NMR experiments were employed to determine the pK values of the phosphate groups in phosphopeptides and to characterize the interaction of the phosphopeptide with the APLF-FHA domain. Experimental parameters included a ^31P offset of 2.48 ppm, a sweep width of 20 ppm, an acquisition time of 1 sec, a relaxation delay of 1 sec, and 1024 scans were acquired per experiment. Phosphopeptide concentrations of 0.5 mM were used in all 1D ^31P NMR experiments. A two-dimensional selective ^1H,^31P-HSQC experiment ([38]) was used to assign the phosphoserine and phosphothreonine resonances. […]
Measurements of the pK values of the free phosphopeptides were performed in 50 mM sodium acetate, 50 mM sodium cacodylate, 1 mM EDTA as a function of pH with 0.5 mM tri-methylphosphate (TMP) added as a chemical shift reference. Small amounts of 0.1 N NaOH or HCl were titrated to vary the pH in the range from 8.5 to 4.0 in 0.2–0.4 pH decrements. pK values were determined by fitting the pH-dependent chemical shift data to a Henderson–Hasselbalch equation: where δP and δU correspond to the protonated and unprotonated chemical shifts. The dependence of the phosphopeptide ^31P NMR shifts as a function of APLF FHA domain concentration were determined in 25 mM HEPES, 25 mM MES, 150 mM NaCl, 1 mM EDTA, pH 7.4, with 0.25 mM TMP added as a chemical shift reference. […]

[7] = pH 6.0, FITC-Gly-Gly labelled peptide, FP buffer
[8] = pH 6.5, FITC-Gly-Gly labelled peptide, FP buffer
[9] = pH 7.4, N-terminal FITC-Gly-Gly labelled peptide, 25 mM HEPES, 25 mM MES, 150 mM NaCl, 1 mM EDTA, 2 mM DTT, 0.05% Tween 20, single-site fit

Compound: C[C@H](NC(=O)[C@H](Cc1ccc(O)cc1)NC(=O)[C@@H]1CCCN1C(=O)[C@@H](N)CC(=O)O)C(=O)NCC(=O)N[C@@H](CCC(=O)O)C(=O)N[C@H](C(=O)N[C@@H](CC(=O)O)C(=O)N[C@@H](CCC(=O)O)C(=O)N[C@@H](CC(N)=O)C(=O)N[C@H](C(=O)N[C@@H](CC(=O)O)C(=O)N[C@@H](CO)C(=O)N[C@@H](CCC(=O)O)C(=O)N[C@@H](CCC(=O)O)C(=O)N[C@@H](Cc1c[nH]cn1)C(=O)N[C@@H](CCC(N)=O)C(=O)N[C@@H](CCC(=O)O)C(=O)O)[C@@H](C)O)[C@@H](C)OP(=O)(O)O [XRCC1EpT-18] (H-DPYAGE[pT]DENTDSEEHQE-OH)
Kd (APLF FHA domain [1]; [7]): > 300 µM
Kd (APLF FHA domain [1]; [8]): > 50 µM
Kd (APLF FHA domain [1]; [9]): 9.94 ± 4.6 µM

Compound: C[C@H](NC(=O)[C@H](Cc1ccc(O)cc1)NC(=O)[C@@H]1CCCN1)C(=O)NCC(=O)N[C@@H](COP(=O)(O)O)C(=O)N[C@H](C(=O)N[C@@H](CC(=O)O)C(=O)N[C@@H](CCC(=O)O)C(=O)N[C@@H](CC(N)=O)C(=O)O)[C@@H](C)OP(=O)(O)O [XRCC1pSpT-9] (H-PYAG[pS][pT]DEN-OH)
Kd (APLF FHA domain [2]): 80 µM

Compound: N[C@@H](COP(=O)(O)O)C(=O)O [phosphoserine]
phosphate pK (dianionic/monoanionic) [3]: approximately 5.75

Compound: O=S(=O)([O-])[O-].[Na+].[Na+] [sulfate, sodium sulfate]
amide shift changes of U-[15N] APLF FHA produced by the anion (APLF FHA domain [4]; pH 7.4): perturbs the same resonances that are sensitive to phosphate, although to a lesser extent

Compound: C[C@H](NC(=O)[C@H](Cc1ccc(O)cc1)NC(=O)[C@@H]1CCCN1C(=O)[C@H](CC(=O)O)NC(=O)CNC(=O)CNC(=S)Nc1ccc2c(c1)C(=O)OC21c2ccc(O)cc2Oc2cc(O)ccc21)C(=O)NCC(=O)N[C@@H](COP(=O)(O)O)C(=O)N[C@H](C(=O)N[C@@H](CC(=O)O)C(=O)N[C@@H](CCC(=O)O)C(=O)N[C@@H](CC(N)=O)C(=O)N[C@H](C(=O)N[C@@H](CC(=O)O)C(=O)N[C@@H](CO)C(=O)N[C@@H](CCC(=O)O)C(=O)N[C@@H](CCC(=O)O)C(=O)N[C@@H](Cc1c[nH]cn1)C(=O)N[C@@H](CCC(N)=O)C(=O)N[C@@H](CCC(=O)O)C(=O)O)[C@@H](C)O)[C@@H](C)OP(=O)(O)O [XRCC1pSpT-18] ({FITC}-GGDPYAG[pS][pT]DENTDSEEHQE-OH; C-terminus assumed)
τB, lifetime of the protein-peptide complex (APLF FHA domain [5]): 0.9 ms
Kd (APLF FHA domain [1]; pH 5.5, FITC-Gly-Gly labelled peptide, FP buffer): > 60 µM
Kd (APLF FHA domain [1]; [7]): > 25 µM
fold reduction of binding affinity at pH 6.0 (APLF FHA domain [1]; pH 6.0 relative to pH 7.4): > 8 fold
Kd (APLF FHA domain [1]; [8]): 8.23 ± 1.89 µM
fold reduction of binding affinity at pH 6.5 (APLF FHA domain [1]; pH 6.5 relative to pH 7.4): less than 2.5 fold
Kd (APLF FHA domain [1]; pH 7.0, FITC-Gly-Gly labelled peptide, FP buffer): 4.67 ± 0.04 µM
Kd (APLF FHA domain [1]; [9]): 3.31 ± 0.15 µM

Compound: C[C@H](NC(=O)[C@H](Cc1ccc(O)cc1)NC(=O)[C@@H]1CCCN1C(=O)[C@H](CC(=O)O)NC(=O)CNC(=O)CNC(=S)Nc1ccc2c(c1)C(=O)OC21c2ccc(O)cc2Oc2cc(O)ccc21)C(=O)NCC(=O)N[C@@H](CO)C(=O)N[C@H](C(=O)N[C@@H](CC(=O)O)C(=O)N[C@@H](CCC(=O)O)C(=O)N[C@@H](CC(N)=O)C(=O)N[C@H](C(=O)N[C@@H](CC(=O)O)C(=O)N[C@@H](CO)C(=O)N[C@@H](CCC(=O)O)C(=O)N[C@@H](CCC(=O)O)C(=O)N[C@@H](Cc1c[nH]cn1)C(=O)N[C@@H](CCC(N)=O)C(=O)N[C@@H](CCC(=O)O)C(=O)O)[C@@H](C)O)[C@@H](C)OP(=O)(O)O [XRCC1SpT-18] ({FITC}-GGDPYAGS[pT]DENTDSEEHQE-OH; C-terminus assumed)
Kd (APLF FHA domain [1]; [9]): > 20 µM

Compound: C[C@@H](OP(=O)(O)O)[C@H](N)C(=O)O [phosphothreonine]
phosphate pK (dianionic/monoanionic) [3]: ~5.95

More lines, main results first:

amide shift changes of U-[15N] APLF FHA produced by the anion (APLF FHA domain [4]; pH 7.4, listed as sodium ethylsulfate): negligible shifts
Compound: CCOS(=O)(=O)[O-].[Na+] [ethylsulfate, sodium ethylsulfate]
amide shift changes of U-[15N] APLF FHA produced by the anion (APLF FHA domain [4]; pH 7.4): fails to produce any significant amide shifts

Kd (APLF FHA domain [4]; pH 5.5): 92500 ± 17800 µM
Kd (APLF FHA domain [4]; pH 7.4): 14100 ± 3700 µM
Compound: O=P(O)(O)O [phosphate, sodium phosphate]

fold reduction of Kd relative to XRCC1pSpT-18 (APLF FHA domain [1]; pH 7.4): 10 fold
Compound: C[C@H](NC(=O)[C@H](Cc1ccc(O)cc1)NC(=O)[C@@H]1CCCN1C(=O)[C@H](CC(=O)O)NC(=O)CNC(=O)CNC(=S)Nc1ccc2c(c1)C(=O)OC21c2ccc(O)cc2Oc2cc(O)ccc21)C(=O)NCC(=O)N[C@@H](COP(=O)(O)O)C(=O)N[C@H](C(=O)N[C@@H](CC(=O)O)C(=O)N[C@@H](CCC(=O)O)C(=O)N[C@@H](CC(N)=O)C(=O)N[C@@H](CCC(=O)O)C(=O)N[C@@H](CC(=O)O)C(=O)N[C@@H](CCC(=O)O)C(=O)N[C@@H](CCC(=O)O)C(=O)N[C@@H](CCC(=O)O)C(=O)N[C@@H](Cc1c[nH]cn1)C(=O)N[C@@H](CCC(N)=O)C(=O)N[C@@H](CCC(=O)O)C(=O)O)[C@@H](C)OP(=O)(O)O [XRCC1pSpTEE-18] ({FITC}-GGDPYAG[pS][pT]DENEDEEEHQE-OH; C-terminus assumed)

pK of pSer phosphate [6]: 6.90
pK of pThr phosphate [6]: 7.22
Compound: VYDEpSpTDEESEN [XRCC4pSpT-12, 12-residue XRCC4 peptide phosphorylated on Ser232/Thr233]
